Test results as given in CN109223750A, “琥珀酸在防治对虾肠炎中的应用” (South China Sea Fisheries Research Institute Chinese …, priority 2018, dated 2019).
Read-outs that look alike come from different tables or passages of the source.

Columns and labels:
IL-10 = conditions: 7 days, versus enteritis model group
TNF-α = conditions: 7 days, versus enteritis model group
[1] = tested on: shrimp intestinal mucosa (对虾 肠道黏膜); conditions: 7 days; for intestinal mucosal damage (histopathology): HE, ×200
NF-κB = conditions: 7 days, versus enteritis model group
IL-1β = conditions: 7 days, versus enteritis model group
bacteria (细菌) = conditions: by raising bacterial proton motive force; cited from earlier work
[2] = cited from earlier work
[3] = tested on: tilapia-derived Streptococcus agalactiae β-haemolysin/cytolysin (罗非鱼源无乳链球菌β-溶血/溶细胞素); conditions: cited from earlier work
HIF-1α = conditions: through activation of HIF-1α; cited from earlier work

O=C(O)CCC(=O)O [琥珀酸]
IL-10 expression (IL-10; high dose: 1% in feed): 显著降低 | IL-10 expression (IL-10; low dose: 0.25% in feed): 显著降低 | TNF-α expression (TNF-α; high dose: 1% in feed): 显著降低 | TNF-α expression (TNF-α; low dose: 0.25% in feed): 显著降低 | intestinal mucosal damage (histopathology) ([1]; high dose: 1% succinic acid in basal feed): 肠道黏膜损伤已修复,形态完整,结构清晰 | intestinal epithelial cell height ([1]; high dose: 1% succinic acid in basal feed, versus blank control group and versus low-dose group): 均有明显增加 | intestinal mucosal damage (histopathology) ([1]; low dose: 0.25% succinic acid in basal feed): 肠道黏膜损伤已修复,形态完整,结构清晰 | intestinal epithelial cell height ([1]; low dose: 0.25% succinic acid in basal feed, versus blank control group): 有明显增加 | NF-κB expression (NF-κB; high dose: 1% in feed): 显著降低 | NF-κB expression (NF-κB; low dose: 0.25% in feed): 显著降低 | IL-1β expression (IL-1β; high dose: 1% in feed): 显著降低 | IL-1β expression (IL-1β; low dose: 0.25% in feed): 显著降低 | sensitivity of bacteria to antibiotics (bacteria (细菌)): 能够提高细菌对抗生素的敏感性 | antibacterial and antioxidant function ([2]; in vivo): 提高 | feed conversion ratio ([2]; shrimp): 降低 | activity of β-haemolysin/cytolysin [3]: 抑制 | IL-1β secretion, inflammation (HIF-1α): 诱导IL-1β分泌促进炎症
